The target of one test is T1, Thromboxane A2 receptor (Homo sapiens, UniProt P21731).
T1 sequence (P21731 whole entry): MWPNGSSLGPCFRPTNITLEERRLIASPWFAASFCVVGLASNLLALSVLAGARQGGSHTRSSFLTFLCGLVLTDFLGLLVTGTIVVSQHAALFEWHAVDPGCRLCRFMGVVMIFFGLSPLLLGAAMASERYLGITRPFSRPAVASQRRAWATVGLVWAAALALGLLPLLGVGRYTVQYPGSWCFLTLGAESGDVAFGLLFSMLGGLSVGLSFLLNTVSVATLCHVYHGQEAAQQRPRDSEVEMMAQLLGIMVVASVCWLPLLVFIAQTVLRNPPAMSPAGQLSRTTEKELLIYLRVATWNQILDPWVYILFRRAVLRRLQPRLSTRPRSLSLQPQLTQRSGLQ
Description: Compound was evaluated for the competitive binding of [3H]U-46619 to washed human platelets at the Thromboxane A2 receptor.

For another test, the species on record is Homo sapiens. Description: Compound was evaluated for the inhibition of U-46,619 induced aggregation of human platelet rich plasma. Format: functional.

A word on the IC50: it is the midpoint of a concentration-inhibition curve. Low readings indicate greater potency in that assay, high ones weaker potency in that assay.

Consider `CCCCCCNC[C@H]1C2CC(CO2)[C@@H]1C/C=C\CCCC(=O)O` (stereo partly drawn), for which the figures for the IC50 at Thromboxane A2 receptor and in the test filed under Homo sapiens were 25 µM and 22 µM, respectively.

Regarding `O=C(O)CCC/C=C\C[C@H]1C2COC(C2)[C@@H]1CNNC(=O)Nc1ccccc1` (stereo partly drawn), in the test filed under Homo sapiens, the midpoint of inhibition, the IC50, lay at 7 µM.

Source of the values: ChEMBL document CHEMBL1126192, “PgH2 analogs as potential antiplatelet derivatives” (J Med Chem, 1992).
